# Data published in patent US20260199213A1, “PEPTIDE HAVING ACTIVITY OF IMPROVING STATE OF SKIN, AND USE THEREOF” (CAREGEN CO., LTD., priority 2022, published 2026).
# Tests used:
# Format in all cases: cell-based
# [1] = system: MMP-1; assay: MMP-1 expression increased by ultraviolet rays in NIH3T3 cells (western blot); conditions: 6 J/cm^2 UV, 10 μM, 50 μM or 1000 μM peptide, 24 hours, FIG. 14
# Excerpt: It has been reported that MMP-1 (matrix metalloproteinase-1) promotes the decomposition of collagen and the reduction of elastin in the dermis layer, thereby creating wrinkles and causing a decrease in elasticity in the skin. Accordingly, in this example, the aim was to confirm the effect of the peptide according to an embodiment on improving extrinsic skin aging, including improving wrinkles and increasing elasticity, etc., by evaluating the change in the expression level of MMP-1 increased by ultraviolet irradiation.
# Specifically, NIH3T3 cells or HaCaT cells were seeded in a 6-well plate at a density of 5×10^5 cells/well and cultured for 24 hours. Next, the cells were washed once with serum-free DMEM media, and 10 μM, 50 μM or 1000 μM of the peptide consisting of the amino acid sequence of SEQ ID NO: 1 was dispensed into 1 mL of the serum-free media, and cultured in a CO2 incubator at 37° C. for 1 hour. Next, the above culture was transferred to an e-tube, mixed with 1 ml of PBS, and dispensed into a well plate. Next, using a UV irradiator (VILBER LOURMAT, Cat No.: 3102-BSU, France), 6 J/cm^2 ultraviolet rays were irradiated to NIH3T3 cells, and 20 mJ/cm^2 ultraviolet rays were irradiated to HaCaT cells. […] Next, MMP-1 was detected using […]. […]
# [2] = system: AQP3; assay: AQP3 expression reduced by ultraviolet rays in HaCaT cells (RT-PCR); conditions: 15 mJ/cm^2 UV, 10 μM, 50 μM or 1000 μM peptide, 8 hours
# Experimental: In this example, the aim was to confirm the effect of the peptide according to an embodiment on the recovery of skin barrier factors in damaged skin cells by evaluating changes in the levels of skin barrier factors in skin cells reduced by ultraviolet irradiation.
# Specifically, HaCaT cells were seeded in a 6-well plate at a density of 5×10^5 cells/well and cultured for 24 hours. Next, the cells were washed once with serum-free DMEM media, and 10 μM, 50 μM or 1000 μM of the peptide consisting of the amino acid sequence of SEQ ID NO: 1 was dispensed into 1 mL of the serum-free media, and cultured in a CO2 incubator at 37° C. for 1 hour. Next, the above culture was transferred to an e-tube, mixed with 1 ml of PBS, and dispensed into a well plate. Next, using a UV irradiator (VILBER LOURMAT, Cat No.: 3102-BSU, France), 15 mJ/cm^2 ultraviolet rays were irradiated to the HaCaT cells. Next, the PBS in the well plate was removed, 900 μL of the culture medium in which the peptides were dispensed was added, and the plate was cultured in a CO2 incubator at 37° C. for 8 hours. Next, the culture was washed twice with PBS, and RNA was isolated from the culture using easy blue (iNtRON, Cat. No.: 17061, Korea). Next, using an RT kit (Enzynomics, Cat. NO.: RT200, Korea), the isolated RNA was reverse transcribed to synthesize the respective cDNA. […]
# [3] = system: aquaporin-3 (AQP3); assay: AQP3 expression by RT-PCR in HaCaT cells; conditions: 10 μM, 50 μM or 1000 μM peptide, 24 hours
# Experimental: In this example, the aim was to confirm the effect of the peptides according to an example on strengthening the skin barrier, by evaluating the expression levels of sirtuin-1 (SIRT-1) or aquaporin-3 (AQP3).
# Specifically, HaCaT cells were seeded in a 6-well plate at a density of 3×10^5 cells/well and cultured for 24 hours. Next, the cells were washed once with serum-free DMEM media, and 10 μM, 50 μM or 1000 μM of the peptide consisting of the amino acid sequence of SEQ ID NO: 1 was dispensed into 1 mL of the serum-free media, and cultured in a CO2 incubator at 37° C. for 24 hours. Next, the culture was washed twice with PBS, and RNA was isolated from the culture using easy blue (iNtRON, Cat. No.: 17061, Korea). Next, using an RT kit (Enzynomics, Cat. NO.: RT200, Korea), the isolated RNA was reverse transcribed to synthesize the respective cDNA. Next, using the synthesized 1 ug cDNA, primers for SIRT-1 or AQP3, and a PCR kit (Enzynomics, Cat. No.: P581T, Korea), polymerase chain reaction (PCR) was performed. Meanwhile, in this example, an untreated group was used as the control group, and a group to which EGF was added was used as a positive control group, the nucleotide sequences of the primers used in this example are shown in Table 3 below.
substance,measurement,setting,value
GPRGDP [SEQ ID NO: 1],expression of MMP-1 increased by ultraviolet irradiation,[1],reduced or restored
same,expression of AQP3 reduced by ultraviolet irradiation,[2],increased or restored
same,expression of skin barrier factor AQP3,[3],increases
